# Laboratory results reported in US11752188B2, “Compositions and methods for nutritional supplements” (DailyColors Health Inc., priority 2020, dated 2023).
# Like-named read-outs stand apart in the source and are kept apart here.
# Key:
# recombinant human CD38 = target: T1, recombinant human CD38 (Homo sapiens, UniProt P28907); assay: CD38 hydrolase in vitro enzymatic assay (ε-NAD+ substrate); type: biochemical
# T1 construct: purchased 71277
# T1 sequence (P28907 1-300): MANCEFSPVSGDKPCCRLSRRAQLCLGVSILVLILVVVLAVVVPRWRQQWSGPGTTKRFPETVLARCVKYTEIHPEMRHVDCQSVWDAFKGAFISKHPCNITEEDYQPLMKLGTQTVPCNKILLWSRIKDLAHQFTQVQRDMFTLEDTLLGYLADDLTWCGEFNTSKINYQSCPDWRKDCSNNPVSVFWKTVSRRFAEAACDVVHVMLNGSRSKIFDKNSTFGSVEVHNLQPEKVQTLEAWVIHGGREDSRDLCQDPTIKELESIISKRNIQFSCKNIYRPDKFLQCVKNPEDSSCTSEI
# From the text: Here, DC-5=Yellow Blend, DC-9=Purple Blend, DC-21-Green Blend, DC-13=Red Blend DCH-TIV 1.0 (Adult Centrum Multivitamins). The red blend included Apple Extract, Pomegranate Extract, Tomato Powder, Beet; the green blend included Olive Extract, Rosemary Extract, Green Coffee Bean Extract, Kale; the orange/yellow blend included Onion Extract, Ginger Extract, Grapefruit Extract, Carrot; and the purple/blue blend included Grape, Blueberry Extract, Currant, and Elderberry as listed above.
# Assay Conditions: 10 μl of the sample or reference inhibitor was added to 20 μl of enzyme solution and pre-incubated for 30 minutes. The enzymatic reactions were started by the addition of 20 μl of the substrate ε-NAD+, for a total reaction volume of 50 μl. Reaction time was 10 minutes, and then fluorescence intensity at an excitation of 300 nm and an emission of 410 nm was read using a Tecan Infinite M1000 microplate reader.
# (§1) Data Analysis: Enzyme activity assays were performed in duplicates at each concentration. The fluorescence intensity data were analyzed and compared. In the absence of the compound, the intensity in each data set was defined as 100% (Ce) activity. In the absence of enzyme, the intensity in each data set was defined as 0% (C0) activity. […] Compound fluorescence was removed by subtracting fluorescence at reaction time=0.
# [1] = target: recombinant human Cathepsin S (Homo sapiens, UniProt P25774); assay: Cathepsin S in vitro enzymatic assay (fluorogenic substrate); type: biochemical
# Experimental: Assay Conditions: Cathepsin S was activated by diluting the concentrated storage stock into the acidic assay buffer for 30 minutes at room temperature. Then, 5 μl of the sample or reference inhibitor was added to 20 μl of enzyme solution and pre-incubated for 30 minutes. The enzymatic reactions were started by the addition of 25 μl of the fluorogenic substrate, for a total reaction volume of 50 μl. Reaction time was 60 minutes, and then fluorescence intensity at an excitation of 360 nm and an emission of 460 nm was read using a Tecan Infinite M1000 microplate reader.
# as §1
# recombinant human Cathepsin S, sequence (P25774 115-331): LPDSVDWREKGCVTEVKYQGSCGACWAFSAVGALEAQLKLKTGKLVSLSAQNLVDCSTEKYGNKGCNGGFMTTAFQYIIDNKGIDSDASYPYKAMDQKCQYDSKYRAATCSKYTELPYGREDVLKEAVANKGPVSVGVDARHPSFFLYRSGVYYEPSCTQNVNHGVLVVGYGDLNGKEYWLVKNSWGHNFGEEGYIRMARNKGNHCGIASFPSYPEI
smiles,measurement,setting,value
O=c1cc(-c2ccc(O)cc2)oc2cc(O)cc(O)c12 [Apigenin],Net Signal (Fluorescence counts) Repeat 1,"recombinant human CD38; 1 μM, Table 61",3461 Fluorescence counts
same,Net Signal (Fluorescence counts) Repeat 2,"recombinant human CD38; 1 μM, Table 61",3761 Fluorescence counts
same,inhibition at 1 µM,"recombinant human CD38; 1 μM, Table 61",14%
same,activity at 1 µM,"recombinant human CD38; 1 μM, Table 61, read-out: Activity (%) Repeat 1",82%
same,activity at 1 µM,"recombinant human CD38; 1 μM, Table 61, read-out: Activity (%) Repeat 2",89%
same,Net Signal (Fluorescence counts) Repeat 1,"recombinant human CD38; 1 μM, Table 62",8650 Fluorescence counts
same,Net Signal (Fluorescence counts) Repeat 2,"recombinant human CD38; 1 μM, Table 62",8614 Fluorescence counts
same,inhibition at 1 µM,"recombinant human CD38; 1 μM, Table 62",6%
same,activity at 1 µM,"recombinant human CD38; 1 μM, Table 62, read-out: Activity (%) Repeat 1",94%
same,activity at 1 µM,"recombinant human CD38; 1 μM, Table 62, read-out: Activity (%) Repeat 2",94%
same,Net Signal (Fluorescence counts) Repeat 1,"recombinant human CD38; 1 μM, Table 63",11531 Fluorescence counts
same,Net Signal (Fluorescence counts) Repeat 2,"recombinant human CD38; 1 μM, Table 63",11647 Fluorescence counts
same,inhibition at 1 µM,"recombinant human CD38; 1 μM, Table 63",14%
same,activity at 1 µM,"recombinant human CD38; 1 μM, Table 63, read-out: Activity (%) Repeat 1",86%
same,activity at 1 µM,"recombinant human CD38; 1 μM, Table 63, read-out: Activity (%) Repeat 2",86%
same,Net Signal (Fluorescence counts) Repeat 1,"recombinant human CD38; 1 μM, TABLE 64",4138 counts
same,Net Signal (Fluorescence counts) Repeat 2,"recombinant human CD38; 1 μM, TABLE 64",3883 counts
same,inhibition at 1 µM,"recombinant human CD38; 1 μM, TABLE 64",8%
same,activity at 1 µM,"recombinant human CD38; 1 μM, TABLE 64, read-out: Activity (%) Repeat 1",95%
same,activity at 1 µM,"recombinant human CD38; 1 μM, TABLE 64, read-out: Activity (%) Repeat 2",89%
same,Net Signal (Fluorescence counts) Repeat 1,"recombinant human CD38; 10 μM, Table 61",647 Fluorescence counts
same,Net Signal (Fluorescence counts) Repeat 2,"recombinant human CD38; 10 μM, Table 61",618 Fluorescence counts
same,inhibition at 10 µM,"recombinant human CD38; 10 μM, Table 61",85%
same,activity at 10 µM,"recombinant human CD38; 10 μM, Table 61, read-out: Activity (%) Repeat 1",15%
same,activity at 10 µM,"recombinant human CD38; 10 μM, Table 61, read-out: Activity (%) Repeat 2",14%
same,Net Signal (Fluorescence counts) Repeat 1,"recombinant human CD38; 10 μM, Table 62",4670 Fluorescence counts
same,Net Signal (Fluorescence counts) Repeat 2,"recombinant human CD38; 10 μM, Table 62",5416 Fluorescence counts
same,inhibition at 10 µM,"recombinant human CD38; 10 μM, Table 62",45%
same,activity at 10 µM,"recombinant human CD38; 10 μM, Table 62, read-out: Activity (%) Repeat 1",51%
same,activity at 10 µM,"recombinant human CD38; 10 μM, Table 62, read-out: Activity (%) Repeat 2",59%
same,Net Signal (Fluorescence counts) Repeat 1,"recombinant human CD38; 10 μM, Table 63",7118 Fluorescence counts
same,Net Signal (Fluorescence counts) Repeat 2,"recombinant human CD38; 10 μM, Table 63",7228 Fluorescence counts
same,inhibition at 10 µM,"recombinant human CD38; 10 μM, Table 63",47%
same,activity at 10 µM,"recombinant human CD38; 10 μM, Table 63, read-out: Activity (%) Repeat 1",53%
same,activity at 10 µM,"recombinant human CD38; 10 μM, Table 63, read-out: Activity (%) Repeat 2",54%
same,Net Signal (Fluorescence counts) Repeat 1,"recombinant human CD38; 10 μM, TABLE 64",3091 counts
same,Net Signal (Fluorescence counts) Repeat 2,"recombinant human CD38; 10 μM, TABLE 64",3057 counts
same,inhibition at 10 µM,"recombinant human CD38; 10 μM, TABLE 64",30%
same,activity at 10 µM,"recombinant human CD38; 10 μM, TABLE 64, read-out: Activity (%) Repeat 1",70%
same,activity at 10 µM,"recombinant human CD38; 10 μM, TABLE 64, read-out: Activity (%) Repeat 2",70%
same,Net Signal (Fluorescence counts) Repeat 1,"recombinant human CD38; 100 μM, Table 61",185 Fluorescence counts
same,Net Signal (Fluorescence counts) Repeat 2,"recombinant human CD38; 100 μM, Table 61",135 Fluorescence counts
same,inhibition at 100 µM,"recombinant human CD38; 100 μM, Table 61",96%
same,activity at 100 µM,"recombinant human CD38; 100 μM, Table 61, read-out: Activity (%) Repeat 1",4%
same,activity at 100 µM,"recombinant human CD38; 100 μM, Table 61, read-out: Activity (%) Repeat 2",3%
same,Net Signal (Fluorescence counts) Repeat 1,"recombinant human CD38; 100 μM, Table 62",1979 Fluorescence counts
same,Net Signal (Fluorescence counts) Repeat 2,"recombinant human CD38; 100 μM, Table 62",2165 Fluorescence counts
same,inhibition at 100 µM,"recombinant human CD38; 100 μM, Table 62",78%
same,activity at 100 µM,"recombinant human CD38; 100 μM, Table 62, read-out: Activity (%) Repeat 1",21%
same,activity at 100 µM,"recombinant human CD38; 100 μM, Table 62, read-out: Activity (%) Repeat 2",23%
same,Net Signal (Fluorescence counts) Repeat 1,"recombinant human CD38; 100 μM, Table 63",5012 Fluorescence counts
same,Net Signal (Fluorescence counts) Repeat 2,"recombinant human CD38; 100 μM, Table 63",5473 Fluorescence counts
same,inhibition at 100 µM,"recombinant human CD38; 100 μM, Table 63",61%
same,activity at 100 µM,"recombinant human CD38; 100 μM, Table 63, read-out: Activity (%) Repeat 1",37%
same,activity at 100 µM,"recombinant human CD38; 100 μM, Table 63, read-out: Activity (%) Repeat 2",40%
same,Net Signal (Fluorescence counts) Repeat 1,"recombinant human CD38; 100 μM, TABLE 64",632 counts
same,Net Signal (Fluorescence counts) Repeat 2,"recombinant human CD38; 100 μM, TABLE 64",728 counts
same,inhibition at 100 µM,"recombinant human CD38; 100 μM, TABLE 64",85%
same,activity at 100 µM,"recombinant human CD38; 100 μM, TABLE 64, read-out: Activity (%) Repeat 1",14%
same,activity at 100 µM,"recombinant human CD38; 100 μM, TABLE 64, read-out: Activity (%) Repeat 2",16%
CC(C)C[C@H](NC(=O)[C@H]1O[C@@H]1C(=O)O)C(=O)NCCCCN=C(N)N [E-64],Activity (%) Repeat 1,"[1]; 1 nM, Table 35",98%
same,Activity (%) Repeat 2,"[1]; 1 nM, Table 35",95%
same,Inhibition (%),"[1]; 1 nM, Table 35",4%
same,Net Signal (Fluorescence counts) Repeat 1,"[1]; 1 nM, Table 35",9894 Fluorescence counts
same,Net Signal (Fluorescence counts) Repeat 2,"[1]; 1 nM, Table 35",9604 Fluorescence counts
same,Activity (%) Repeat 1,"[1]; 1 nM, Table 36",99%
same,Activity (%) Repeat 2,"[1]; 1 nM, Table 36",100%
same,Inhibition (%),"[1]; 1 nM, Table 36",1%
same,Net Signal (Fluorescence counts) Repeat 1,"[1]; 1 nM, Table 36",8864 Fluorescence counts
same,Net Signal (Fluorescence counts) Repeat 2,"[1]; 1 nM, Table 36",8931 Fluorescence counts
same,Activity (%) Repeat 1,"[1]; 0.001 μM, Table 37",88%
same,Activity (%) Repeat 2,"[1]; 0.001 μM, Table 37",83%
same,Inhibition (%),"[1]; 0.001 μM, Table 37",15%
same,Net Signal (Fluorescence counts) Repeat 1,"[1]; 0.001 μM, Table 37",52418 Fluorescence counts
same,Net Signal (Fluorescence counts) Repeat 2,"[1]; 0.001 μM, Table 37",49644 Fluorescence counts
same,Activity (%) Repeat 1,"[1]; 10 nM, Table 35",51%
same,Activity (%) Repeat 2,"[1]; 10 nM, Table 35",54%
same,Inhibition (%),"[1]; 10 nM, Table 35",48%
same,Net Signal (Fluorescence counts) Repeat 1,"[1]; 10 nM, Table 35",5170 Fluorescence counts
same,Net Signal (Fluorescence counts) Repeat 2,"[1]; 10 nM, Table 35",5444 Fluorescence counts
same,Activity (%) Repeat 1,"[1]; 10 nM, Table 36",64%
same,Activity (%) Repeat 2,"[1]; 10 nM, Table 36",59%
same,Inhibition (%),"[1]; 10 nM, Table 36",38%
same,Net Signal (Fluorescence counts) Repeat 1,"[1]; 10 nM, Table 36",5727 Fluorescence counts
same,Net Signal (Fluorescence counts) Repeat 2,"[1]; 10 nM, Table 36",5326 Fluorescence counts
same,Activity (%) Repeat 1,"[1]; 0.01 μM, Table 37",36%
same,Activity (%) Repeat 2,"[1]; 0.01 μM, Table 37",33%
same,Inhibition (%),"[1]; 0.01 μM, Table 37",66%
same,Net Signal (Fluorescence counts) Repeat 1,"[1]; 0.01 μM, Table 37",21262 Fluorescence counts
same,Net Signal (Fluorescence counts) Repeat 2,"[1]; 0.01 μM, Table 37",19656 Fluorescence counts
same,Activity (%) Repeat 1,"[1]; 0.1 μM, Table 37",5%
same,Activity (%) Repeat 2,"[1]; 0.1 μM, Table 37",6%
same,Inhibition (%),"[1]; 0.1 μM, Table 37",95%
same,Net Signal (Fluorescence counts) Repeat 1,"[1]; 0.1 μM, Table 37",3091 Fluorescence counts
same,Net Signal (Fluorescence counts) Repeat 2,"[1]; 0.1 μM, Table 37",3478 Fluorescence counts
same,Activity (%) Repeat 1,"[1]; 100 nM, Table 35",9%
same,Activity (%) Repeat 2,"[1]; 100 nM, Table 35",9%
same,Inhibition (%),"[1]; 100 nM, Table 35",91%
same,Net Signal (Fluorescence counts) Repeat 1,"[1]; 100 nM, Table 35",958 Fluorescence counts
same,Net Signal (Fluorescence counts) Repeat 2,"[1]; 100 nM, Table 35",960 Fluorescence counts
same,Activity (%) Repeat 1,"[1]; 100 nM, Table 36",11%
same,Activity (%) Repeat 2,"[1]; 100 nM, Table 36",12%
same,Inhibition (%),"[1]; 100 nM, Table 36",89%
same,Net Signal (Fluorescence counts) Repeat 1,"[1]; 100 nM, Table 36",1009 Fluorescence counts
same,Net Signal (Fluorescence counts) Repeat 2,"[1]; 100 nM, Table 36",1033 Fluorescence counts
